Laboratory results taken from the supplement of paper PMC10307832.

Columns and labels:
YM155 = compound: COCC[n+]1c2c(n(Cc3cnccn3)c1C)C(=O)c1ccccc1C2=O [YM155]; experiment: relative viability (nuclei count vs DMSO), 5 days (fraction); higher = more cells survive
In short: (§1)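 Vehicle-anchored 1536-well plates of lung cancer cell lines, held overnight at 37 °C, were pinned with five library-drug doses (not always all listed) spaced by √10. No medium change followed over the next 5 days, after which the cells were fixed, permeabilised and Hoechst-stained together and imaged at 4×. Nuclei were counted with MetaXpress, and viability is treated-well nuclei over vehicle-well nuclei, taken as a median across plates. Plates passed with control CV below 25% and at least one doubling.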

Quizartinib = compound: CC(C)(C)c1cc(NC(=O)Nc2ccc(-c3cn4c(n3)sc3cc(OCCN5CCOCC5)ccc34)cc2)no1 [Quizartinib]; experiment: as above
In short: as §1

Cell Line | relative viability (YM155; 0.002 µM) | relative viability (YM155; 0.006325 µM) | relative viability (YM155; 0.02 µM) | relative viability (YM155; 0.06325 µM) | relative viability (Quizartinib; 0.001 µM) | relative viability (Quizartinib; 0.003162 µM) | relative viability (Quizartinib; 0.01 µM) | relative viability (Quizartinib; 0.03162 µM) | relative viability (Quizartinib; 0.1 µM)
NCI-H596 | 0.962 | 0.989 | 1.15 | 1.06 | 1.05 | 1.03 | 0.99 | 0.875 | 1.04
NCI-H647 | 0.857 | 0.89 | 0.925 | 0.538 | 0.794 | 0.946 | 1.09 | 0.855 | 1.09
NCI-H650 | 0.953 | 0.88 | 1.01 | 0.909 | 0.849 | 0.863 | 0.851 | 0.833 | 0.967
NCI-H661 | 0.982 | 0.957 | 0.991 | 0.909 | 0.883 | 0.988 | 0.991 | 1.01 | 0.948
NCI-H727 | 0.932 | 0.933 | 0.967 | 1.04 | 0.7 | 0.899 | 0.883 | 0.83 | 0.96
NCI-H838 | 0.912 | 0.999 | 1.01 | 0.768 | 0.894 | 0.962 | 0.882 | 0.936 | 0.843
NCI-H1299 | 0.984 | 0.977 | 1.01 | 1 | 0.949 | 1.01 | 1.02 | 1.03 | 1.03
NCI-H1355 | 0.927 | 1.01 | 1.01 | 1.08 | 0.924 | 0.966 | 0.876 | 1 | 1.02
NCI-H1395 | 0.898 | 0.946 | 1.12 | 0.985 | 0.93 | 0.949 | 0.841 | 0.811 | 1.16
NCI-H1437 | 0.89 | 0.96 | 0.983 | 0.826 | 0.942 | 0.963 | 0.973 | 0.822 | 0.849
NCI-H1563 | 0.971 | 0.966 | 1.07 | 0.983 | 1 | 0.889 | 0.989 | 0.646 | 0.949
NCI-H1623 | 0.934 | 1.29 | 1.02 | 1.02 | 0.845 | 1.12 | 0.905 | 0.977 | 1.09
NCI-H1650 | 0.867 | 0.921 | 0.863 | 0.739 | 0.877 | 0.976 | 0.918 | – | 1
NCI-H1651 | 0.929 | 0.992 | 0.974 | 0.998 | 0.88 | 0.885 | 1.06 | 0.924 | 0.988
NCI-H1666 | 0.932 | 1 | 1.02 | 0.918 | 0.86 | 1.01 | 1 | 0.845 | 1.02
NCI-H1703 | 0.808 | 0.807 | 0.767 | 0.444 | 0.847 | 0.527 | 0.256 | 0.264 | 0.316
NCI-H1734 | 0.995 | 0.956 | 1.01 | 1.1 | 0.924 | 0.959 | 1.03 | 0.943 | 1.01
NCI-H1755 | 0.973 | 0.996 | 0.968 | 1.03 | 0.866 | 0.958 | 0.996 | 1.07 | 0.99
NCI-H1792 | 0.754 | 0.884 | 0.983 | 0.957 | 0.712 | 0.987 | 0.811 | 0.853 | 0.924

Cell Line | relative viability (YM155; 0.002 µM) | relative viability (YM155; 0.006325 µM) | relative viability (YM155; 0.02 µM) | relative viability (YM155; 0.06325 µM) | relative viability (Quizartinib; 0.001 µM) | relative viability (Quizartinib; 0.003162 µM) | relative viability (Quizartinib; 0.01 µM) | relative viability (Quizartinib; 0.03162 µM) | relative viability (Quizartinib; 0.1 µM)
NCI-H1793 | 0.706 | 0.936 | 0.908 | 0.869 | 0.838 | 1.01 | 0.839 | 0.853 | 0.925
NCI-H1915 | 0.888 | 0.994 | 0.997 | 0.817 | 0.877 | 0.925 | 0.865 | 0.998 | 1.02
NCI-H1944 | 0.957 | 0.889 | 1.02 | 1.03 | 0.938 | 0.918 | 0.889 | 0.918 | 0.944
NCI-H1975 | 0.826 | 0.883 | 0.921 | 0.679 | 0.853 | 0.891 | 0.966 | 1.03 | 1.01
NCI-H1993 | 0.904 | 0.927 | 0.771 | 0.577 | 0.948 | 1 | 1.02 | 1.04 | 1.11
NCI-H2009 | 0.976 | 0.992 | 1.02 | 0.836 | 0.903 | 0.937 | 0.995 | 1.02 | 0.96
NCI-H2023 | 0.872 | 1.01 | 0.866 | 0.71 | 0.881 | 0.999 | 0.938 | – | 1.01
NCI-H2085 | 0.954 | 0.986 | 0.922 | 0.636 | 0.95 | 0.939 | 1.02 | 0.943 | 0.976
NCI-H2087 | 1.07 | 1.03 | 1.1 | 0.856 | 0.85 | 0.784 | 1.24 | 1.09 | 1.11
NCI-H2126 | 0.972 | 1.03 | 0.991 | 1.05 | 0.981 | 1.01 | 1.01 | 1.05 | 1.08
NCI-H2170 | 0.922 | 1.05 | 0.936 | 1.05 | 0.97 | 0.944 | 1.04 | 1.04 | 0.995
NCI-H2228 | 0.834 | 0.887 | 1.02 | 1.11 | 0.856 | 0.854 | 1.15 | 1.13 | 0.927
NCI-H2342 | 0.947 | 0.997 | 0.996 | 0.949 | 0.953 | 0.992 | 1.02 | 0.88 | 1.06
NCI-H2347 | 0.928 | 0.994 | 1.07 | 0.868 | 0.961 | 1.06 | 1.07 | 0.965 | 1.12
NCI-H2405 | 0.952 | 0.903 | 0.956 | 0.595 | 0.986 | 1.03 | 0.955 | 0.958 | 1.06
NCI-H3122 | 0.984 | 0.992 | 1.01 | 0.976 | 0.885 | 0.977 | 1.07 | 1.01 | 0.982
PC-3 [JPC-3] | 1.01 | 1.07 | 1.1 | 1 | 0.978 | 1.02 | 1.04 | 0.852 | 1.08
PC-14 | 0.939 | 1.02 | 1.03 | 0.931 | 0.884 | 0.985 | 1.09 | 0.833 | 1.18
RERF-LC-KJ | 1 | 0.973 | 1.01 | 1.01 | 0.954 | 0.926 | 1.03 | 0.99 | 0.915
